The values below come from patent publication US20220175882A1, “BETA-CASEIN A2 AND REDUCING OR […] OF LACTOSE INTOLERANCE” (THE A2 MILK COMPANY LIMITED, priority 2013, published 2022).

The IC50 is the concentration that gives 50% inhibition.

One test has as its system SH-SY5Y neuronal cells. The experiment in a line: Intracellular cysteine, GSH and SAM/SAH levels by HPLC with electrochemical detection. Format: cell-based, human. The protocol: Media was aspirated and the cells were washed twice with 1 mL of ice cold HBSS. HBSS was aspirated and 0.6 mL ice cold dH2O was added to the cells. The cells were scraped from the flask/dish and suspended in dH2O. […] The remaining lysate was added to a microcentrifuge tube and an equal volume of 0.4 N perchloric acid was added, followed by incubation on ice for 5 min. Samples were centrifuged at 5,000×g and the supernatant transferred to new microcentrifuge tubes.
The separation of redox and methylation pathway metabolites was accomplished using an Agilent Eclipse XDB-C8 analytical column (3×150 mm; 3.5 μm) and an Agilent Eclipse XDB-C8 (4.6×12.5 mm; 5 μm) guard column. […] The flow rate was initially set at 0.6 mL/min and a step gradient was used: 0-9 min 0% B, 9-19 min 50% B, 19-30 min 50% B. The column was then equilibrated with 5% B for 12 min prior to the next run. Temperature was maintained at 27° C. […] Sample concentrations were determined from the peak areas of metabolites using standard calibration curves and ESA-supplied HPLC software. Sample concentrations were normalised against protein content. In some cases samples were diluted in mobile phase as needed or up to 50 μl of sample was injected to assure that thiol levels were within the range of the standard curve.

Another test has as its system SH-SY5Y cells. The experiment in a line: DNA methylation by MBD-seq (differentially methylated transcripts). Format: cell-based, human. The settings on record: cells treated 4 hours with 1 μM BCM-7; FDR<0.1, p<0.05. The procedure: Global DNA methylation levels induced by BCM-7 were investigated using methyl-CpG binding domain (MBD) protein-enriched genome sequencing (MBD-seq) as described previously (Trivedi M., et al., Mol. Pharm. 2014), whereas mRNA translation microarray data was obtained using Agilent V3 microarray chip, from non-treated control SH-SY5Y cells and cells treated for 4 hours with 1 μM BCM-7.
Genomic DNA was extracted from samples with the Easy DNA kit (Invitrogen K1800-01) using the appropriate protocol for cell lines. Fragmentation was performed on Covaris S2 with the following settings: duty cycle 10%, intensity 5, 200 cycles per burst during 200 sec. Fragments were obtained having an average length of 200 bp. The power mode is frequency sweeping, temperature 6-8° C., water level 12. A maximum of 5 μg was loaded in 130 μl Tris-EDTA in a microtube with AFA intensifier. For samples with less DNA input (down to 500 ng) the DNA was diluted 1:5 in TrisEDTA. DNA with an input from 5-3 μg was analysed on the Agilent 2100 using a DNA 1000 chip. DNA with an input lower than 3 μg was concentrated in a rotary evaporator to 25 μl and the fragment distribution was checked on a high sensitivity DNA chip. Methylated DNA was captured using the MethylCap kit (Diagenode, Belgium). The yield was typically between 0.5 and 8 ng of total captured DNA. Fragments were subsequently sequenced using an Illumina Genome Analyzer II. The concentrations of fragmented and captured DNA were determined on a Fluostar Optima plate reader with the Quant-iT PicoGreen dsDNA Assay Kit (Invitrogen P7589) at 480/520 nm.
To prepare the DNA library, a DNA Sample Prep Master Mix Set 1 (NEB E6040) was used in combination with a Multiplexing Sample Preparation Oligo Kit (96 samples, Illumina PE-400-1001). The entire fragmented DNA was utilised and followed the NEB protocols, using the multiplexing sequencing adapters provided in the Multiplexing Sample Preparation Oligo Kit. Size selection of the library was carried out on a 2% agarose gel (Low Range Ultra Agarose Biorad 161-3107). […] A fragment of 300 bps +/−50 bps was excised and eluted on a Qiagen Gel Extraction Kit column (Qiagen 28704) and eluted in 23 μl EB.
The Illumina library amplification index protocol was used with the following alterations: 22 μl DNA was used and performed 21 cycles run. The sample was purified on a Qiaquick PCR Purification column (Qiagen 28101) and eluted in 50 μl EB, 1:5 diluted, and concentrated in a rotary evaporator to 10 μl. 1 μl was applied to a Agilent 2100 HS DNA chip and the concentration was determined by smear analysis on the Agilent 2100. The samples were diluted to 10 nM. After denaturation with NaOH the samples were diluted to […]. The Paired-End flow cell was prepared according to the Cluster Station User Guide. […]

Test [1] deals with Caco-2 Gut epithelial cells. To be noted: read-out: IC50, inhibition of cysteine uptake; GI epithelial cells (FIG. 4). The protocol:
(§1) Pre-treatment in cells was performed for different time points for 30 min, 4, 24 and 48 h as described previously (Trivedi M., et al.; Mol. Pharm., 2014). SH-SY5Y human neuronal cells and Caco-2 Gut epithelial cells were plated in six-well plates and were pretreated with drugs and incubated for various times prior to measuring uptake. Media were aspirated and cells were washed with 600 μL of HBSS at 37° C. Non-radioactive HBSS was aspirated, replaced with 600 μL of 37° C. HBSS containing [^35S]-cysteine (1 μCl/1 mL), 10 μM unlabelled cysteine and 100 μM DTT, and the cells were incubated for 5 min. The [^35S]-cysteine/HBSS mixture was aspirated and treatment was terminated by two washes with ice-cold HBSS. Cells were then lysed with 600 μL of dH2O, scraped, collected in 1.5 mL microcentrifuge tubes, and sonicated for 10 s. 100 μL of each sample was aliquoted for protein assay. 200 μL of each sample (in triplicate) was aliquoted into scintillation vials with 4 mL of scintillation fluid, vortexed, and counted for radioactivity (normalised against protein content). […] The symbol * used in these figures indicates a statistically significant difference (p<0.05) compared against the untreated control, and the symbol # indicates a statistically significant difference (p<0.005) compared against the untreated control.

For test [2], the system named is SH-SY5Y human neuronal cells. The protocol:
as §1

Structures are written as SMILES. “Also recorded” adds a separate entry of the source. Where a SMILES comes first, the peptide text is derived from it.

Consider `CC[C@H](C)[C@H](NC(=O)[C@@H]1CCCN1C(=O)CNC(=O)[C@@H]1CCCN1C(=O)[C@H](Cc1ccccc1)NC(=O)[C@@H]1CCCN1C(=O)[C@@H](N)Cc1ccc(O)cc1)C(=O)O` [BCM-7, beta-casomorphin-7] (H-YPFPGPI-OH; N-terminus and C-terminus assumed), for which, in the test with SH-SY5Y neuronal cells (30 min, 4 h, 24 h), the “Cysteine and glutathione (GSH) levels” value is on record as “time-dependent decreases”. Besides, the “Methylation capacity (SAM/SAH ratio)” value with SH-SY5Y neuronal cells (different time points (FIG. 7)) is “affected”. For the same compound, in the test on SH-SY5Y cells, the “Differentially methylated transcripts: Galactose metabolism” value is “GALK2 and GALR2 and GALT and GALR1 and CHST1 and NPY and PYY and GKN1”; the “Differentially methylated transcripts: Gastric Acid secretion” value was “SCTR and OXTR and VIPR1 and SST and PPARGC1A and PGC”; the “Differentially methylated transcripts: Lactose Biosynthetic pathway” value is listed as “LGALS12; also recorded: B4GALT1; also recorded: B4GALT2”; the “Differentially methylated transcripts: Lactose metabolism” value was “LCT”. In addition, the IC50 in test [1] came to 15.9 nM. Moreover, in test [2] (in presence of CTAP (selective μ-antagonist) or naltrindole (delta antagonist), FIG. 6), the “Receptor mediating the effect on cysteine uptake” value is given as “μ-opioid receptor mediated”. Moreover, in test [2] (neuronal cells and GI epithelial cells (FIG. 5), 30 min to 48 h exposure), the “Time course of inhibition of cysteine uptake” value was “fully developed after 30 minutes and was sustained through 48 hours”. Besides, in test [2] (read-out: IC50, inhibition of cysteine uptake, neuronal cells (FIG. 4)), the IC50 is 1.31 nM.
